# Values of other authors, collected in patent publication US5599811A, “Benzothiazine dioxides as endothelin antagonists” (Warner-Lambert Company, priority 1995, dated 1997).
# Like-named read-outs stand apart in the source and are kept apart here. Where a SMILES comes first, the peptide text is derived from it. [ ]: non-standard residue; d: D form.
# Experiments:
# [1] = test system: cerebral vasospasm following SAH; details: rat; cited from earlier work
# [2] = test system: cerebral vasospasm following SAH; details: rabbit; cited from earlier work
# [3] = test system: allergic sheep; details: cited from earlier work
# [4] = test system: cerebral vasospasm following subarachnoid hemorrhage; details: in vivo; cited from earlier work
# [5] = test system: congestive heart failure; details: rat, in vivo; cited from earlier work
# [6] = test system: basilar artery; details: rabbits with SAH; cited from earlier work
# [7] = test system: acute renal ischemia; details: rats; cited from earlier work
# [8] = test system: subarachnoid hemorrhage; details: rats; cited from earlier work
# [9] = test system: ischemia-induced acute renal failure; details: anesthetized dogs (title of citation); cited from earlier work
# [10] = test system: basilar artery; details: after 7 days, canine two-hemorrhage model of SAH; cited from earlier work
compound,measurement,setting,value
CC(C)C[C@@H]1NC(=O)[C@@H](C(C)C)NC(=O)[C@@H]2CCCN2C(=O)[C@@H](CC(=O)O)NC(=O)[C@@H](Cc2c[nH]c3ccccc23)NC1=O [BQ-123] (cyclo(L[dW][dD]P[dV])),prevention of early cerebral vasospasm following SAH,[1],prevents early cerebral vasospasm following SAH
same,prevention of early cerebral vasospasm following SAH,[2],prevents early cerebral vasospasm following SAH
same,block of ET-1-induced bronchoconstriction and tracheal smooth muscle contraction,[3],block ET-1-induced bronchoconstriction and tracheal smooth muscle contraction
same,prevention of early cerebral vasospasm following subarachnoid hemorrhage,[4],prevent early cerebral vasospasm following subarachnoid hemorrhage
COc1ccccc1Oc1c(NS(=O)(=O)c2ccc(C(C)(C)C)cc2)nc(-c2ncccn2)nc1OCCO [Bosentan],treatment of congestive heart failure,[5],useful in the treatment of congestive heart failure
same,reduction of basilar artery cross-sectional area compared to sham rabbits,[6],36±7%
COc1cccc(Oc2c(NS(=O)(=O)c3ccc(C(C)(C)C)cc3)ncnc2OCCO)c1 [Ro 46-2005],effect in model of acute renal ischemia,[7],effective
same,effect in model of subarachnoid hemorrhage,[8],effective
same,prevention of early cerebral vasospasm following SAH,[1],prevent early cerebral vasospasm following SAH
CCCOc1ccc2c(c1)[C@@H](c1ccc(OC)cc1OCC(=O)O)[C@H](C(=O)O)[C@H]2c1ccc2c(c1)OCO2 [SB 209670],effect in ischemia-induced acute renal failure,[9],beneficial in ischemia-induced acute renal failure
FR 139317,inhibition of vasoconstriction of the basilar artery,[10],significantly inhibited the vascoconstriction of the basilar artery
